Active and inactive are the calls of the source. The rule behind the calls is not given here.
Columns and labels:
[1] = test system: HepG2; test: Cytotoxicity against human HepG2 cells assessed as cell viability at 0.5 to 5 uM measured after 48 hrs by CCK-8 assay; format: toxicity, cell-based; details: hepg2, 48 h, dose 0.5-5 µM
[2] = test system: HEK-293T; test: Cytotoxicity against human 293T cells assessed as cell viability at 0.5 to 5 uM measured after 48 hrs by CCK-8 assay; format: toxicity, cell-based; details: dose 0.5-5 µM
[3] = test system: Mus musculus; test: Anti-inflammatory activity in carrageen-induced paw edema BALB/c mouse model assessed as inhibition of soft tissue edema and inflammation measured immediately at 20 mg/kg, po measured at 3 hrs; format: functional
[4] = test system: Staphylococcus aureus; test: Antimicrobial activity against Staphylococcus aureus ATCC 29213 by microbroth dilution method; format: functional
[5] = test system: Staphylococcus aureus; test: Antimicrobial activity against methicillin-resistant Staphylococcus aureus 19B120 by microbroth dilution method; format: functional
[6] = test system: Mus musculus; test: Antiinflammatory activity against cerulein-induced acute pancreatitis in CD1 mouse assessed as increase in pancreatic 8,9-EET/DHET ratio at 20 mg/kg, ip pretreated with cerulein followed by compound injection on 30 and 150 mins and measured 6 hrs post cerulein treatment relative to model group; format: functional; details: time 30-360 min
[7] = test system: Mus musculus; test: Antiinflammatory activity against cerulein-induced acute pancreatitis in CD1 mouse assessed as increase in pancreatic 14,15-EET/DHET ratio at 20 mg/kg, ip pretreated with cerulein followed by compound injection on 30 and 150 mins and measured 6 hrs post cerulein treatment relative to model group; format: functional; details: time 30-360 min
[8] = test system: Mus musculus; test: Antiinflammatory activity against cerulein-induced acute pancreatitis in CD1 mouse assessed as increase in plasma 8,9-EET/DHET ratio at 20 mg/kg, ip pretreated with cerulein followed by compound injection on 30 and 150 mins and measured 6 hrs post cerulein treatment relative to model group; format: functional; details: time 30-360 min
[9] = test system: Mus musculus; test: Antiinflammatory activity against cerulein-induced acute pancreatitis in CD1 mouse assessed as increase in plasma 14,15-EET/DHET ratio at 20 mg/kg, ip pretreated with cerulein followed by compound injection on 30 and 150 mins and measured 6 hrs post cerulein treatment relative to model group; format: functional; details: time 30-360 min
[10] = test system: Mus musculus; test: Anti-inflammatory activity in cerulein-induced acute pancreatitis in CD1 mouse model assessed as decrease in cerulein-induced pancreatitis by measuring pancreatic histopathology at 20 mg/kg, ip administered 30 and 150 mins post-cerulein treatment measured after 6 hrs post-cerulein treatment by H and E staining based analysis; format: functional, organism-based; details: time 30-360 min
[11] = test system: Mus musculus; test: Anti-inflammatory activity in cerulein-induced acute pancreatitis in CD1 mouse model assessed as decrease in plasma TNFalpha level at 20 mg/kg, ip administered 30 and 150 mins post-cerulein treatment measured after 6 hrs post-cerulein treatment by ELISA; format: functional, organism-based
[12] = test system: Mus musculus; test: Anti-inflammatory activity in cerulein-induced acute pancreatitis in CD1 mouse model assessed as decrease in plasma IL-6 level at 20 mg/kg, ip administered 30 and 150 mins post-cerulein treatment measured after 6 hrs post-cerulein treatment by ELISA; format: functional, organism-based
[13] = test system: Mus musculus; test: In vivo inhibition sEH activity in cerulein-induced acute pancreatitis in CD1 mouse model assessed as enzyme activity in pancreatic homogenate at 20 mg/kg, ip administered 30 and 150 mins post-cerulein treatment measured after 6 hrs post-cerulein treatment; format: functional, organism-based; details: time 30-360 min
[14] = Acute toxicity in male BALB/c mouse assessed as physiological changes at 100 mg/kg, po single dose measured for 24 hrs; format: organism-based; details: in vivo
[15] = Acute toxicity in BALB/c mouse assessed as pathological changes in liver tissue by measuring hemorrhage at 100 mg/kg, po single dose measured for 24 hrs; format: organism-based; details: in vivo
[16] = Acute toxicity in BALB/c mouse assessed as pathological changes in liver tissue by measuring inflammation at 100 mg/kg, po single dose measured for 24 hrs; format: organism-based; details: in vivo
[17] = Acute toxicity in BALB/c mouse assessed as pathological changes in liver tissue by measuring necrosis at 100 mg/kg, po single dose measured for 24 hrs; format: organism-based; details: in vivo
[18] = Acute toxicity in BALB/c mouse assessed as pathological changes in kidney tissue by measuring hemorrhage at 100 mg/kg, po single dose measured for 24 hrs; format: organism-based; details: in vivo
[19] = Acute toxicity in BALB/c mouse assessed as pathological changes in kidney tissue by measuring inflammation at 100 mg/kg, po single dose measured for 24 hrs; format: organism-based; details: in vivo
[20] = Acute toxicity in BALB/c mouse assessed as pathological changes in kidney tissue by measuring necrosis at 100 mg/kg, po single dose measured for 24 hrs; format: organism-based; details: in vivo
[21] = Acute toxicity in female BALB/c mouse assessed as physiological changes at 100 mg/kg, po single dose measured for 24 hrs; format: organism-based; details: in vivo
[22] = Half life in Sprague-Dawley rat at 5 mg/kg, iv measured up to 24 hrs; format: ADME, organism-based; details: in vivo
[23] = AUC (0 to 24 hrs) in Sprague-Dawley rat at 5 mg/kg, iv measured up to 24 hrs; format: ADME, organism-based; details: in vivo
[24] = Clearance in Sprague-Dawley rat at 5 mg/kg, iv measured up to 24 hrs; format: ADME, organism-based; details: in vivo
[25] = Half life in Sprague-Dawley rat at 20 mg/kg, po measured up to 24 hrs; format: ADME, organism-based; details: in vivo
[26] = AUC (0 to 24 hrs) in Sprague-Dawley rat at 20 mg/kg, po measured up to 24 hrs; format: ADME, organism-based; details: in vivo
[27] = Clearance in Sprague-Dawley rat at 20 mg/kg, po measured up to 24 hrs; format: ADME, organism-based; details: in vivo
[28] = Oral bioavailability in Sprague-Dawley rat at 20 mg/kg measured up to 24 hrs; format: ADME, organism-based; details: in vivo
[29] = Tmax in Sprague-Dawley rat at 5 mg/kg, iv measured up to 24 hrs; format: ADME, organism-based; details: in vivo
[30] = Cmax in Sprague-Dawley rat at 5 mg/kg, iv measured up to 24 hrs; format: ADME, organism-based; details: in vivo
[31] = AUC (0 to infinity) in Sprague-Dawley rat at 5 mg/kg, iv measured up to 24 hrs; format: ADME, organism-based; details: in vivo
[32] = Volume of distribution (Vz) in Sprague-Dawley rat at 5 mg/kg, iv measured up to 24 hrs; format: ADME, organism-based; details: in vivo, read-out: Vz
[33] = Tmax in Sprague-Dawley rat at 20 mg/kg, po measured up to 24 hrs; format: ADME, organism-based; details: in vivo
[34] = Cmax in Sprague-Dawley rat at 20 mg/kg, po measured up to 24 hrs; format: ADME, organism-based; details: in vivo
[35] = AUC (0 to infinity) in Sprague-Dawley rat at 20 mg/kg, po measured up to 24 hrs; format: ADME, organism-based; details: in vivo
[36] = Volume of distribution (Vz) in Sprague-Dawley rat at 20 mg/kg, po measured up to 24 hrs; format: ADME, organism-based; details: in vivo

For `COc1cc2c(cc1OC)[C@H]1Cc3ccc(NC(=O)NCc4ccc(OC(F)(F)F)cc4)cc3CN1CC2`, the Activity [1] was “Non-toxic”, the Activity [2] was “Non-toxic” and the inhibition in vivo at 20 mg/kg [3] was 33%. The MIC [4] was greater than 64 µg/mL, the MIC [5] was greater than 64 µg/mL and the “fold change (FC)” value [6] was 5.4. For the same compound, the “fold change (FC)” value [7] was 26, the “fold change (FC)” value [8] was 3.8 and the “fold change (FC)” value [9] was 15.4. For the same compound, the Activity [10] was “Active”, the Activity [11] was “Active” and the Activity [12] was “Active”. For the same compound, the Activity [13] was “Active”, the Activity [14] was “Non-toxic” and the Activity [15] was “Non-toxic”. For the same compound, the Activity [16] was “Non-toxic”, the Activity [17] was “Non-toxic” and the Activity [18] was “Non-toxic”. For the same compound, the Activity [19] was “Non-toxic”, the Activity [20] was “Non-toxic” and the Activity [21] was “Non-toxic”. It also gave a half-life [22] of 6.1 h, an AUC(0-t) at 24 h [23] of 27800 ng·h/mL and a clearance [24] of 2.85 mL/min/kg. It also gave a half-life [25] of 7.2 h, an AUC(0-t) at 24 h [26] of 99500 ng·h/mL and a CL/F [27] of 3.03 mL/min/kg. The bioavailability [28] was 89.3%, the Tmax [29] was 4.8 min and the Cmax [30] was 4860 ng/mL. For the same compound, the AUC(0-inf) [31] was 29600 ng·h/mL, the Vd [32] was 1.49 L/kg and the Tmax [33] was 1.67 h. For the same compound, the Cmax [34] was 10300 ng/mL, the AUC(0-inf) [35] was 110000 ng·h/mL and the Vz [36] was 1.889 L/kg.

From ChEMBL document CHEMBL6078704, “Redesigning Berberines and Sanguinarines to Target Soluble Epoxide Hydrolase for Enhanced Anti-Inflammatory Efficacy” (J Med Chem, 2024)
